In patent US4025506A, “Broad spectrum antibiotics” (Pfizer Inc., priority 1975, dated 1977):
≈ marks a conversion by molar mass, not a printed value. Where two headings read alike, the source gives them in different places.

Assays:
[1] = system: P. mirabilis 57C0015; assay: In vitro antibacterial MIC, P. mirabilis 57C0015; type: cell-based; settings: Proteus mirabilis
From the text: (§1) The in vitro activity of the herein described compounds renders them useful for topical application in the form of ointments, creams and the like, or for sterilization purposes, e.g., sick-room utensils.
(§2) Table I compares the in vitro profile of 6-[D-2-phenyl-2-(amidinopropionamido)acetamido]penicillanic acid (PAP) with ampicillin (AMP) and carbenicillin (CAR).

[2] = system: E. coli 51A266; assay: In vivo protection against experimental E. coli infection in mice (Table II); settings: doses 0.5, 4 and 24 hours after inoculation
Description: Table II presents the in vivo comparison data for the three compounds contained in Table I against several experimental infections in mice.
The values (% survivors) are obtained under standard conditions known to those skilled in the art. For the E. coli organism, the test compound is administered to the infected mice by a multiple dosing regimen in which the first dose is given 0.5 hour after inoculation and is repeated 4 and 24 hours later.

[3] = system: Kleb. penumoniae 53A015; assay: In vitro antibacterial MIC, Kleb. penumoniae 53A015; type: cell-based; settings: nutrient broth, Table I
From the text: as §1, §2

[4] = system: E. coli 51A002; assay: In vitro antibacterial MIC, E. coli 51A002; type: cell-based; settings: Escherichia coli, nutrient broth, Table I
From the text: as §1, §2

[5] = system: A. aerogenes 55A002; assay: In vitro antibacterial MIC, A. aerogenes 55A002; type: cell-based; settings: Klebsiella aerogenes, nutrient broth, Table I
From the text: as §1, §2

[6] = system: E. coli 51A266; assay: In vitro antibacterial MIC, E. coli 51A266; type: cell-based; settings: Escherichia coli
From the text: as §1, §2

[7] = system: Ps. aeruginosa 52A490; assay: In vitro antibacterial MIC, Ps. aeruginosa 52A490; type: cell-based; settings: Pseudomonas aeruginosa
From the text: as §1, §2

[8] = system: Ps. aeruginosa 52A104; assay: In vitro antibacterial MIC, Ps. aeruginosa 52A104; type: cell-based; settings: Pseudomonas aeruginosa
From the text: as §1, §2

[9] = system: Kleb. pneumoniae 53A009; assay: In vitro antibacterial MIC, Kleb. pneumoniae 53A009; type: cell-based; settings: Klebsiella pneumoniae
From the text: as §1, §2

[10] = system: Ser. marcescens 63A001; assay: In vitro antibacterial MIC, Ser. marcescens 63A001; type: cell-based; settings: Serratia marcescens
From the text: as §1, §2

[11] = system: S. aureus 01A005; assay: In vitro antibacterial MIC, S. aureus 01A005; type: cell-based; settings: Staphylococcus aureus
From the text: as §1, §2

[12] = system: A. aerogenes; assay: In vitro antibacterial MIC, A. aerogenes; type: cell-based; settings: Klebsiella aerogenes
From the text: as §1, §2

[13] = system: P. mirabiis 57C015; assay: In vitro antibacterial MIC, P. mirabiis 57C015; type: cell-based
From the text: as §1, §2

[14] = system: E. coli 51A266; assay: In vivo protection against E. coli infection in mice (Table IV); settings: doses 0.5, 4 and 24 hours after inoculation
Description: Table IV presents in vivo comparison data for the four compounds in Table III against E. coli infections in mice.
The values, reported as % survivors, are obtained under standard conditions familiar to those skilled in the art. The test compound is administered to the infected mice by a multiple dosing regimen in which the first dose is given 0.5 hour after inoculation and is repeated 4 and 24 hours later.

[15] = system: gram-negative bacteria; settings: cited from earlier work
[16] = P. mirabilis 57C0015, nutrient broth, Table I, read-out: MIC

| SMILES | % Protection (% survivors) ([2]; PO, 50 mg./kg.) [%] | % Protection (% survivors) ([2]; PO, 200 mg./kg.) [%] | % Protection (% survivors) ([2]; SC, 50 mg./kg.) [%] | % Protection (% survivors) ([2]; SC, 200 mg./kg.) [%] | MIC [6] [µg/mL] | MIC [7] [µg/mL] | MIC [8] [µg/mL] | MIC [9] [µg/mL] | MIC [10] [µg/mL] | MIC [11] [µg/mL] | MIC [12] [µg/mL] | MIC [13] [µg/mL] | % Survivors ([14]; PO, 25 mg./kg.) [%] | % Survivors ([14]; PO, 50 mg./kg.) [%] | % Survivors ([14]; PO, 200 mg./kg.) [%] | % Survivors ([14]; SC, 25 mg./kg.) [%] | % Survivors ([14]; SC, 50 mg./kg.) [%] | % Survivors ([14]; SC, 200 mg./kg.) [%] | also measured |
| --- | --- | --- | --- | --- | --- | --- | --- | --- | --- | --- | --- | --- | --- | --- | --- | --- | --- | --- | --- |
| CC1(C)S[C@@H]2[C@H](NC(=O)[C@H](N)c3ccccc3)C(=O)N2[C@H]1C(=O)O [AMP, ampicillin] | 80 | 90 | 80 | 90 |  |  |  |  |  |  |  |  |  |  |  |  |  |  | MIC ([1]; 57C0015): 1.56 µg/mL (≈ 4.46 µM) |
| CC1(C)S[C@@H]2[C@H](NC(=O)C(C(=O)O)c3ccccc3)C(=O)N2[C@H]1C(=O)O (some centres unmarked) [CAR, carbenicillin] | 10 | 70 | 90 | 90 |  |  |  |  |  |  |  |  |  |  |  |  |  |  | MIC [3]: > 200 µg/mL; MIC [1, 16]: 1.25 µg/mL (≈ 3.3 µM) |
| CC1(C)S[C@@H]2[C@H](NC(=O)[C@H](NC(=O)CCC(=N)N)c3ccccc3)C(=O)N2[C@H]1C(=O)O [PAP, 6-[D-2-phenyl-2-(amidinopropionamido)acetamido]penicillanic acid] | 20 | 30 | 80 | 80 |  |  |  |  |  |  |  |  |  |  |  |  |  |  | MIC [4]: 200 µg/mL (≈ 447 µM); MIC [3]: > 200 µg/mL; MIC [5]: 100 µg/mL (≈ 223 µM); MIC [1, 16]: 6.25 µg/mL (≈ 14 µM) |
| CC1(C)S[C@@H]2[C@H](NC(=O)C(NC(=O)CNC(=N)c3ccc(Br)cc3)c3ccccc3)C(=O)N2[C@H]1C(=O)O (some centres unmarked) [X = Br] |  |  |  |  | 0.39 (≈ 0.663 µM) | 6.25 (≈ 10.6 µM) | 25 (≈ 42.5 µM) | 12.5 (≈ 21.2 µM) | 6.25 (≈ 10.6 µM) | 0.39 (≈ 0.663 µM) | 3.12 (≈ 5.3 µM) | 3.12 (≈ 5.3 µM) | 10 | 0 | 0 | 50 | 60 | 90 |  |
| CC1(C)S[C@@H]2[C@H](NC(=O)C(NC(=O)CNC(=N)c3ccc(Cl)cc3)c3ccccc3)C(=O)N2[C@H]1C(=O)O (some centres unmarked) [X = Cl] |  |  |  |  | 0.78 (≈ 1.43 µM) | 12.5 (≈ 23 µM) | 25 (≈ 46 µM) | 12.5 (≈ 23 µM) | 6.25 (≈ 11.5 µM) | 0.39 (≈ 0.717 µM) | 3.12 (≈ 5.73 µM) | 3.12 (≈ 5.73 µM) | 0 | 0 | 0 | 50 | 60 | 70 |  |
| CC1(C)S[C@@H]2[C@H](NC(=O)C(NC(=O)CNC(=N)c3ccc(F)cc3)c3ccccc3)C(=O)N2[C@H]1C(=O)O (some centres unmarked) [X = F] |  |  |  |  | 1.56 (≈ 2.96 µM) | 3.12 (≈ 5.91 µM) | 12.5 (≈ 23.7 µM) | 25 (≈ 47.4 µM) | 6.25 (≈ 11.8 µM) | 0.39 (≈ 0.739 µM) | 25 (≈ 47.4 µM) | 3.12 (≈ 5.91 µM) | 10 | 0 | 10 | 50 | 70 | 90 |  |
| CC1(C)S[C@@H]2[C@H](NC(=O)C(NC(=O)CNC(=N)c3ccccc3)c3ccccc3)C(=O)N2[C@H]1C(=O)O (some centres unmarked) [X = H] |  |  |  |  | 12.5 (≈ 24.5 µM) | 12.5 (≈ 24.5 µM) | 25 (≈ 49.1 µM) | 100 (≈ 196 µM) | 12.5 (≈ 24.5 µM) | 0.78 (≈ 1.53 µM) | 25 (≈ 49.1 µM) | 12.5 (≈ 24.5 µM) | 0 | 0 | 10 | 10 | 70 | 90 |  |
| CC1(C)S[C@@H]2[C@H](NC(=O)C(C(=O)O)c3ccccc3)C(=O)N2[C@H]1C(=O)O (stereo partly drawn) [α-Carboxybenzylpenicillin] |  |  |  |  |  |  |  |  |  |  |  |  |  |  |  |  |  |  | utility via oral administration (in words) ([15]; oral): limited utility via oral administration; efficacy against gram-negative bacteria (in words) ([15]; parenteral route): greater efficacy against gram-negative bacteria |
